Reference: patent publication US8551984B2, “Aminopyrimidines as SYK inhibitors” (Merck Sharp & Dohme Corp., priority 2009, dated 2013)

Molecular target: rhSYK (Homo sapiens, UniProt P43405)
Test: biochemical

Structure (SMILES)	IC50 [nM]
Cc1cc(Nc2nccc(C(F)(F)F)n2)cc(-c2cnc([C@]3(O)CC[C@@H](C(=O)NCc4ccc(O)cc4)CC3)s2)c1 [Example 119-75]	< 100
Cc1cc(Nc2nccc(C(F)(F)F)n2)cc(-c2cnc([C@]3(O)CC[C@@H](C(=O)NCc4ccc(O)c(O)c4)CC3)s2)c1 [Example 119-86]	< 100
Cc1cc(Nc2nccc(C(F)(F)F)n2)cc(-c2cnc([C@]3(O)CC[C@@H](CCC(N)=O)CC3)s2)c1 [Example 117-11]	< 100
Cc1cc(Nc2nccc(C(C)C)n2)cc(-c2cnc(C3(O)CCC(C(=O)NCc4cccnc4)C(C)C3)s2)c1 (stereo not shown) [Example 119-115]	< 100
Cc1cc(Nc2nccc(C(F)(F)F)n2)cc(-c2cnc([C@]3(O)CC[C@@H](C(=O)Nc4ccc5[nH]ccc5c4)CC3)s2)c1 [Example 119-82]	< 100
Cc1cc(Nc2nccc(C(F)(F)F)n2)cc(-c2cnc([C@]3(O)CC[C@@H](C(=O)N4CCCC4)CC3)s2)c1 [Example 119-24]	< 100
COC(=O)C(CC(C)C)NC(=O)CCc1ncc(-c2cc(C)cc(Nc3nccc(C(F)(F)F)n3)c2)s1 (stereo not shown) [Example 117-19]	100 to 1000
Cc1cc(Nc2nccc(C(F)(F)F)n2)cc(-c2cnc([C@]3(O)CC[C@@H](C(=O)N4CCOCC4)CC3)s2)c1 [Example 119-29]	< 100
Cc1cc(Nc2nccc(C)n2)cc(-c2cnc([C@@]3(O)CC[C@H](C(=O)NCCCN4CCCC4=O)C(C)(C)C3)s2)c1 [Example 119-135]	< 100
Cc1cc(Nc2nccc(C(F)(F)F)n2)cc(-c2cnc(C3(O)CCC(C(=O)N(C)CCC#N)CC3)s2)c1 (stereo not shown) [Example 119-28]	< 100
Cc1cc(Nc2nccc(C(F)(F)F)n2)cc(-c2cnc([C@]3(O)CC[C@@H](C(=O)NC(C)C)CC3)s2)c1 [Example 119-20]	< 100
COc1ccnc(Nc2cc(C)cc(-c3cnc(C4(O)CCC(C(N)=O)C(C)(C)C4)s3)c2)n1 (stereo not shown) [Example 119-117]	< 100
Cc1cc(Nc2nccc(C(F)(F)F)n2)cc(-c2cnc([C@]3(O)CC[C@@H](C(=O)Nc4ccc(O)cc4)CC3)s2)c1 [Example 119-55]	< 100
Cc1cc(Nc2nccc(C3CC3)n2)cc(-c2cnc(C3(O)CCC(C(N)=O)C(C)(C)C3)s2)c1 (stereo not shown) [Example 119-118]	< 100
Cc1cc(Nc2nccc(C(F)(F)F)n2)cc(-c2cnc(C3(O)CCC(C(=O)NCc4ccc(F)cc4)CC3)s2)c1 (stereo not shown) [Example 119-77]	< 100
CC(=O)NCCCCNC(=O)[C@H]1CC[C@](O)(c2ncc(-c3cc(C)cc(Nc4nccc(C(F)(F)F)n4)c3)s2)CC1 [Example 119-81]	< 100
Cc1cc(Nc2nccc(C)n2)cc(-c2cnc(C3(O)CCC(C(N)=O)C(C)(C)C3)s2)c1 (stereo not shown) [Example 119-7]	< 100
Cc1cc(Nc2nccc(C(F)(F)F)n2)cc(-c2cnc([C@]3(O)CC[C@@H](C(=O)Nc4cccc(CO)c4)CC3)s2)c1 [Example 119-73]	< 100
Cc1cc(Nc2nccc(C(C)(C)C)n2)cc(-c2cnc(C3(O)CCC(C(N)=O)C(C)(C)C3)s2)c1 (stereo not shown) [Example 119-125]	< 100
Cc1cc(Nc2nccc(C(C)(C)C)n2)cc(-c2cnc(C3(O)CCC(C(N)=O)CC3)s2)c1 (stereo not shown) [Example 119-9]	< 100
CC1(C)CC(O)(c2ncc(-c3cc(CO)cc(Nc4nccc(C(F)(F)F)n4)c3)s2)CCC1C(N)=O (stereo not shown) [Example 191-141]	< 100
Cc1cc(Nc2nccc(C(F)(F)F)n2)cc(-c2cnc([C@@]3(O)CC[C@H](C(=O)Nc4cccnc4)C(C)(C)C3)s2)c1 [Example 119-136]	< 100

Structure (SMILES)	IC50 [nM]
Cc1cc(Nc2nccc(C(F)(F)F)n2)cc(-c2cnc(C3(O)CCC(C(=O)NC4CCCc5ccccc54)CC3)s2)c1 (stereo not shown) [Example 119-93]	< 100
Cc1cc(Nc2nccc(C(F)(F)F)n2)cc(-c2cnc(C3(O)CCC(C(=O)NC4CCC(C(=O)O)CC4)CC3)s2)c1 (stereo not shown) [Example 119-91]	< 100
Cc1cc(Nc2nccc(C(F)(F)F)n2)cc(-c2cnc(C3(O)CCC(C(=O)NC4c5ccccc5CC4O)CC3)s2)c1 (stereo not shown) [Example 119-95]	< 100
Cc1cc(Nc2nccc(C(C)C)n2)cc(-c2cnc([C@]3(O)CC[C@@H](C(N)=O)CC3)s2)c1 [Example 119-8]	< 100
Cc1cc(Nc2nccc(C(F)(F)F)n2)cc(-c2cnc([C@]3(O)CC[C@@H](C(=O)NCc4ccc5c(c4)C(=O)NC5)CC3)s2)c1 [Example 119-97]	< 100
Cc1cc(Nc2nccc(C(F)(F)F)n2)cc(-c2cnc([C@]3(O)CC[C@@H](C(=O)NCc4cccc5c4C(=O)NC5)CC3)s2)c1 [Example 119-96]	< 100
Cc1cc(Nc2nccc(C(F)(F)F)n2)cc(-c2cnc(C3(O)CCC(C(=O)NCCc4ccccc4)CC3)s2)c1 (stereo not shown) [Example 119-70]	< 100
Cc1cc(Nc2nccc(C(F)(F)F)n2)cc(-c2cnc([C@]3(O)CC[C@@H](C(=O)NCc4ccccc4)CC3)s2)c1 [Example 119-51]	< 100
Cc1cc(Nc2nccc(C(F)(F)F)n2)cc(-c2cnc(C3(O)CCN(CCCC(N)=O)CC3)s2)c1 [Example 117-7]	< 100
COCCCNC(=O)[C@H]1CC[C@](O)(c2ncc(-c3cc(C)cc(Nc4nccc(C(F)(F)F)n4)c3)s2)CC1 [Example 119-31]	< 100
Cc1cc(Nc2nccc(C(C)F)n2)cc(-c2cnc(C3(O)CCC(C(N)=O)C(C)(C)C3)s2)c1 (stereo not shown) [Example 119-122]	< 100
Cc1cc(Nc2nccc(C(C)O)n2)cc(-c2cnc(C3(O)CCC(C(N)=O)C(C)(C)C3)s2)c1 (stereo not shown) [Example 119-120]	< 100
Cc1cc(Nc2nccc(C(F)(F)F)n2)cc(-c2cnc(C3(O)CC(C(N)=O)C3)s2)c1 (stereo not shown) [Example 117-1]	< 100
Cc1cc(Nc2nccc(C(F)(F)F)n2)cc(-c2cnc([C@]3(O)CC[C@@H](C(=O)N(C)C)CC3)s2)c1 [Example 119-17]	< 100
Cc1cc(Nc2nccc(OCCO)n2)cc(-c2cnc(C3(O)CCC(C(N)=O)CC3)s2)c1 (stereo not shown) [Example 119-14]	< 100
Cc1cc(Nc2nccc(C(F)(F)F)n2)cc(-c2cnc(C3(O)CCC(C(=O)NC4CCCCC4)CC3)s2)c1 (stereo not shown) [Example 119-44]	< 100
Cc1cc(Nc2nccc(C(F)(F)F)n2)cc(-c2cnc(C3(O)CCC(C(=O)NCc4cocn4)CC3)s2)c1 (stereo not shown) [Example 119-42]	< 100
Cc1cc(Nc2nccc(C(F)(F)F)n2)cc(-c2cnc([C@]3(O)CC[C@@H](C(=O)NC(CO)CO)CC3)s2)c1 [Example 191-33]	< 100
Cc1cc(Nc2nccc(C(F)(F)F)n2)cc(-c2cnc([C@]3(O)CC[C@@H](C(N)=O)C(C)(C)C3)s2)c1 [Example 119-131]	< 100
Cc1cc(Nc2nccc(C(F)(F)F)n2)cc(-c2cnc([C@]3(O)CC[C@@H](C(=O)NCCO)CC3)s2)c1 [Example 119-22]	< 100
Cc1cc(Nc2nccc(C(F)(F)F)n2)cc(-c2cnc(C3(O)CCC(C(=O)NCc4cccnc4)CC3)s2)c1 (stereo not shown) [Example 191-52]	< 100
Cc1cc(Nc2nccc(C(F)(F)F)n2)cc(-c2cnc(C3(O)CCC(C(=O)N(C)Cc4ccccc4)CC3)s2)c1 (stereo not shown) [Example 119-69]	< 100

Structure (SMILES)	IC50 [nM]
Cc1cc(Nc2nccc(C(F)(F)F)n2)cc(-c2cnc(C3(O)CCC(C(=O)Nc4ccncc4)CC3)s2)c1 (stereo not shown) [Example 119-34]	< 100
NC(=O)[C@H]1CC[C@](O)(c2ncc(-c3cc(Cl)cc(Nc4nccc(C(F)(F)F)n4)c3)s2)CC1 [Example 119-145]	< 100
CC(=O)N(C)CCNC(=O)C1CCC(O)(c2ncc(-c3cc(C)cc(Nc4nccc(C(F)(F)F)n4)c3)s2)CC1 (stereo not shown) [Example 119-68]	< 100
Cc1cc(Nc2nccc(C(F)(F)F)n2)cc(-c2cnc(C(C)(O)c3ccc(C(N)=O)cc3)s2)c1 (single isomer, unassigned) [Example 117-20]	< 100
Cc1cc(Nc2nccc(C(F)(F)F)n2)cc(-c2cnc([C@]3(O)CC[C@@H](C(=O)NCc4ccccc4O)CC3)s2)c1 [Example 119-74]	< 100
Cc1cc(Nc2nccc(C(F)(F)F)n2)cc(-c2cnc([C@H]3CC[C@H](C(N)=O)CC3)s2)c1 [Example 117-5]	< 100
Cc1cc(Nc2nccc(C(F)(F)F)n2)cc(-c2cnc([C@H]3CC[C@@H](C(N)=O)CC3)s2)c1 [Example 117-4]	< 100
COCc1cc(Nc2nccc(C(F)(F)F)n2)cc(-c2cnc([C@@]3(O)CC[C@H](C(N)=O)C(C)(C)C3)s2)c1 [Example 119-143]	< 100
Cc1cc(Nc2nccc(C)n2)cc(-c2cnc(C3(O)CCC(C(=O)NCc4cccnc4)C(C)C3)s2)c1 (stereo not shown) [Example 119-114]	< 100
Cc1cc(Nc2nccc(C)n2)cc(-c2cnc(C3(O)CCC(C(N)=O)C(C)C3)s2)c1 (single isomer, unassigned) [Example 119-5]	< 100
Cc1cc(Nc2nccc(C(F)(F)F)n2)cc(-c2cnc([C@]3(O)CC[C@@H](C(=O)NCc4cn5ccccc5n4)CC3)s2)c1 [Example 119-94]	< 100
Cc1cc(Nc2nccc(C(C)C)n2)cc(-c2cnc(C3(O)CCC(C(=O)NCC#N)C(C)C3)s2)c1 (stereo not shown) [Example 119-113]	< 100
Cc1cc(Nc2nccc(C(F)(F)F)n2)cc(-c2cnc([C@]3(O)CC[C@@H](C(=O)NCC4CC4)CC3)s2)c1 [Example 119-23]	< 100
Cc1cc(Nc2nccc(C(F)(F)F)n2)cc(-c2cnc([C@]3(O)CC[C@@H](C(=O)N4CCN(C)CC4)CC3)s2)c1 [Example 119-46]	< 100
COC(=O)N1CCN(C(=O)C2CCC(O)(c3ncc(-c4cc(C)cc(Nc5nccc(C(F)(F)F)n5)c4)s3)CC2)CC1 (stereo not shown) [Example 119-92]	< 100
COC(=O)CCNC(=O)CCc1ncc(-c2cc(C)cc(Nc3nccc(C(F)(F)F)n3)c2)s1 [Example 117-18]	< 100
COC(=O)C(C)NC(=O)CCc1ncc(-c2cc(C)cc(Nc3nccc(C(F)(F)F)n3)c2)s1 (stereo not shown) [Example 117-17]	< 100
Cc1cc(Nc2nccc(C(F)(F)F)n2)cc(-c2cnc(C3(O)CCC(C(=O)NCC(O)CO)CC3)s2)c1 (stereo not shown) [Example 119-32]	< 100
Cc1cc(Nc2nccc(C(F)(F)F)n2)cc(-c2cnc(C3(O)CCC(C(=O)NCCC(N)=O)CC3)s2)c1 (stereo not shown) [Example 119-30]	< 100
CC(=O)NCCNC(=O)[C@H]1CC[C@](O)(c2ncc(-c3cc(C)cc(Nc4nccc(C(F)(F)F)n4)c3)s2)CC1 [Example 119-49]	< 100
